Source: patent publication US20190160035A1, “METHOD OF TREATMENT” (QBIOTICS LIMITED, priority 2016, published 2019)
Where “and” joins values, the source holds several entries; their conditions need not be identical. Equal entries are not always repeated.

Legend:
MCT = experiment: Example 5: neoadjuvant prednisolone action (tumor change between screening and immediate pre-treatment evaluation); format: in vivo, Canis lupus familiaris (dog)
From the text: (§1) Each supervising veterinarian was given latitude to provide and record prophylactic and supportive medications as deemed appropriate for managing potential paraneoplastic events and tumor site necrosis following Compound 1 treatment. However, prednisolone and antihistamines were used as co-therapy. Prednisolone therapy commenced on Day −1 and continued for a further 7 days. H1 and H2 antihistamine therapy (chlorpheniramine and famotidine respectively) commenced on the morning of drug treatment and continued for a further 6 days (see Table 23).
(§2) RECIST v.1.1 results are summarised in Table 28 which also includes a measure of neoadjuvant prednisolone action (potential tumor shrinkage) between screening and immediate pre-treatment tumor evaluation. Sixteen (16) dogs and eighteen (18) tumors were treated. Raw data for RECIST assessment was collected on Day 0 (immediately pre-treatment) and on Day 28 for fifteen (15) cases. […] With the remaining three (3) cases (C05-T-18, C05-V-01, and C05-V-02), the dogs were not available on Day 28 for RECIST assessment. For dog C05-T-18, the injection site was measured as CR on Days 21 and 37. […] For dog C05-V-01, the injection site was measured as PR on Days 21 and 37 (55% and 60% RECIST reduction respectively). […] For dog […], due to the progressive nature of disease, the animal was removed from study on Day 21.

[1] = tested on: MCT (cutaneous and subcutaneous); experiment: Example 5: Compound 1 injection with oral prednisolone and antihistamine co-therapy, RECIST v.1.1 tumor response; format: in vivo, Canis lupus familiaris (dog); details: 1 mg/kg/day, 24 h pre-treatment and 7 days post-treatment
From the text: This study investigates the efficacy and safety of Compound 1 injection for MCT treatment in the presence of corticosteroids administered under defined clinical situations.
Dogs were selected for the study if they met the criteria in Table 1 (Example 1) but where the dog has at least one MCT.
Wherever possible, the tumor and a 2 cm border surrounding the tumor was shaved prior to treatment. To deliver the drug, the needle of the dosing syringe was inserted into the tumor at the injection point and moved in a radial manner in 2- and 3-dimensions with drug delivered to the tumor mass. Study dogs were clinically examined at 2-4 and 24 hours, and 7 (+2), 14 (+2) and 28 (+2) days post-treatment (and unscheduled visits at attending veterinarian discretion).
as §1, §2

[2] = following 24 h neoadjuvant prednisolone, dog C05-T-17
[3] = per case (one dog tumor per line), negative = increase

C[C@]12C=CC(=O)C=C1CC[C@@H]1[C@@H]2[C@@H](O)C[C@@]2(C)[C@H]1CC[C@]2(O)C(=O)CO [prednisolone]
RECIST reduction following 24 h prednisolone administration, Mean (MCT; Mean of cases): 5%
Tumor vol (cm^3) reduction following 24 h prednisolone administration, Mean (MCT; Mean of cases): 27%
RECIST reduction following 24 h prednisolone administration, Median (MCT; Median of cases): 6%
Tumor vol (cm^3) reduction following 24 h prednisolone administration, Median (MCT; Median of cases): 31%
Decrease in RECIST measure from screening to pre-treatment evaluation (MCT; [2]): 6%
Decrease in tumor volume from screening to pre-treatment evaluation (MCT; [2]): 31%
Tumor response following 24 h prednisolone administration (screening to immediate pre-treatment): RECIST reduction (MCT; [3]): −5% and 8% and −23% and 39% and −12% and 0% and 16% and −8% and 28% and 12% and 20% and 6% and 34% and −26% and −20%
Tumor response following 24 h prednisolone administration (screening to immediate pre-treatment): Tumor vol (cm^3) reduction (MCT; [3]): 23% and 62% and −36% and 71% and 61% and 13% and 59% and 35% and 45% and 27% and 31% and 76% and −118% and 14%
Effect of oral prednisolone on drug (Compound 1) action [1]: limited or no suppressive effects
